Experimental data as given in patent US10118936B2, “Arginase inhibitors and methods of use” (ASTRAZENECA AB, priority 2009, dated 2018).
Entries after “also recorded” stand apart in the source; their conditions may differ. Counter-ions that a name gives are not always drawn.

Legend:
human arginase I (hArgI) = molecular target: T1, human arginase I (hArgI) (Homo sapiens, UniProt P05089); assay: QuantiChrom colorimetric arginase inhibition assay, human arginase I; format: biochemical; conditions: IC50 from 12-concentration curve converted to Ki by Cheng-Prusoff equation
T1 sequence (P05089 1-322): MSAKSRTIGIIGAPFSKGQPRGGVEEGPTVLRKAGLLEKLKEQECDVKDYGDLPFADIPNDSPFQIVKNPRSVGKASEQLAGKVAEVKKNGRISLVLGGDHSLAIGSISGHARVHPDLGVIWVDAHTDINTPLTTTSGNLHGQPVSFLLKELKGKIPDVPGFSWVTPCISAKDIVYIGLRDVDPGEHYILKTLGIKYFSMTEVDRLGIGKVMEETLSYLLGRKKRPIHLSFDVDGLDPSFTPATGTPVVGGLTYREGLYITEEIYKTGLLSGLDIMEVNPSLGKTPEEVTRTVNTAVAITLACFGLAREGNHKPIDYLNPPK
Description: (§1) Quantitative determination of arginase activity was performed by a colorimetric method using the QuantiChrom™ Arginase Assay Kit available from BioAssay Systems (Hayward, Calif., Catalog No. DARG-200), which was used according to the manufacture's protocol. Briefly, the method utilizes a chromogen that forms a colored complex specifically with urea produced in the arginase reaction. […] The intensity of the color is directly proportional to the arginase activity in the sample.
(§2) The rate of urea production was measured in the presence of twelve different concentrations of each potential inhibitor compound. The half maximal inhibitory concentration (IC50) was determined by constructing a dose-response curve. As IC50 values are dependent upon the measurement conditions, the IC50 values are converted to the inhibitor binding affinity (Ki) using the Cheng-Prusoff equation and the measured affinity constant (Km) of L-arginine.

[1] = molecular target: T2, human arginase II (hArgII) (Homo sapiens, UniProt P78540); assay: QuantiChrom colorimetric arginase inhibition assay, human arginase II; format: biochemical; conditions: IC50 from 12-concentration curve converted to Ki by Cheng-Prusoff equation
T2 sequence (P78540 23-354): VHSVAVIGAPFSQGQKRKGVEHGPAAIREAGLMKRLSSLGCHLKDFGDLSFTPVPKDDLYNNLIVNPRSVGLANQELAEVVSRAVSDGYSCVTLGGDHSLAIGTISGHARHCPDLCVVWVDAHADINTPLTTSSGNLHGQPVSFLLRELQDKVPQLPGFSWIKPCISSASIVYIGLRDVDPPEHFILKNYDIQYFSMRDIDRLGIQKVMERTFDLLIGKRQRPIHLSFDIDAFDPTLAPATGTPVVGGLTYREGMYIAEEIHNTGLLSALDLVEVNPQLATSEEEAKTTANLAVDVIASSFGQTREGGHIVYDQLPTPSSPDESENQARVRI
Description: as §1, §2

arginase = assay: Arginase inhibition, potency comparisons (isoform not stated); format: biochemical, human; conditions: relative potency statements in text
Description: Quantitative determination of arginase activity was performed by a colorimetric method using the QuantiChrom™ Arginase Assay Kit available from BioAssay Systems (Hayward, Calif., Catalog No. DARG-200), which was used according to the manufacture's protocol. Briefly, the method utilizes a chromogen that forms a colored complex specifically with urea produced in the arginase reaction. See, Mellerup, “Colorimetric method for rapid determination of serum arginase,” Clin. Chem. 13, 900-08 (1967). The intensity of the color is directly proportional to the arginase activity in the sample.
The rate of urea production was measured in the presence of twelve different concentrations of each potential inhibitor compound. The half maximal inhibitory concentration (IC50) was determined by constructing a dose-response curve. As IC50 values are dependent upon the measurement conditions, the IC50 values are converted to the inhibitor binding affinity (Ki) using the Cheng-Prusoff equation and the measured affinity constant (Km) of L-arginine. See, e.g., Cheng et al., “Relationship between the inhibition constant (K1) and the concentration of inhibitor which causes 50 percent inhibition (I50) of an enzymatic reaction,” Biochem. Pharmacol. 22, 3099-108 (1973).
In Table 6, the Ki values reflect the potency of these molecules to inhibit the catalytic activity of arginase to produce urea from the substrate L-arginine. […] That is, racemic materials were compared to racemic controls. Thus, there are several examples that have similar potencies to Rac-ABH.
Shortening the alkyl chain by one carbon atom as in the phenoxyethyl compound 1ad also results in a potency loss. Thus, there appears to be definitive structure-activity features that results in increased potency at the molecular target, arginase, in these α,α-disubstituted derivatives.

[2] = cited from earlier work
[3] = tested on: genitalia engorgement response; conditions: live female rabbits; cited from earlier work
[4] = tested on: airway hyperresponsiveness; conditions: guinea pigs, allergic asthma model, nebulizer treatment; cited from earlier work
erectile response = conditions: live male rabbits; cited from earlier work
[5] = tested on: opossum internal anal sphincter muscle; conditions: cited from earlier work
[6] = tested on: rabbit and human penile corpus cavernosum; conditions: cited from earlier work
[7] = tested on: corpus cavernosum of the diabetic person; conditions: ex vivo; cited from earlier work
[8] = tested on: experimental autoimmune encephalomyelitis; conditions: cited from earlier work
microvasculature = conditions: subcutaneous administration in humans; cited from earlier work

NC(CCCCB(O)O)(CCCN1CCNCC1)C(=O)O (stereo not shown) [Compound 1ba]
Ki (human arginase I (hArgI)): 10 to 100 nM
Ki [1]: 10 to 100 nM

CC(N)(CCCCB(O)O)C(=O)O (stereo not shown) [Compound 1ao, 2-Amino-6-borono-2-methylhexanoic acid hydrochloride]
Ki (human arginase I (hArgI)): 0.1 to 10 nM
Ki [1]: 10 to 100 nM

Cc1ccc(S(=O)(=O)NCCCCC(N)(CCCCB(O)O)C(=O)O)cc1 (stereo not shown) [Compound 40a, 2-Amino-6-borono-2-(4-(4-methylphenylsulfonamido)butyl)hexanoic acid]
Ki (human arginase I (hArgI)): 10 to 100 nM
Ki [1]: 10 to 100 nM

NC(CCCCB(O)O)(CCCC1CCNCC1)C(=O)O (stereo not shown) [Compound 1az, 2-Amino-6-borono-2-(3-(piperidin-4-yl)propyl)hexanoic acid]
Ki (human arginase I (hArgI)): 0.1 to 10 nM
Ki [1]: 0.1 to 10 nM

NC(CO)(CCCCB(O)O)C(=O)O (stereo not shown) [Compound 1aq, 2-Amino-6-borono-2-(hydroxymethyl)hexanoic acid hydrochloride]
Ki (human arginase I (hArgI)): 0.1 to 10 nM
Ki [1]: 10 to 100 nM

Cl.NC(CCCCB(O)O)(CCOCc1ccccc1)C(=O)O (stereo not shown) [Compound 1aa, 2-Amino-2-(benzyloxyethyl)-6-boronohexanoic acid hydrochloride]
Ki (human arginase I (hArgI)): 10 to 100 nM
potency as arginase inhibitor, compared in words (arginase): potency is lost
Ki [1]: 10 to 100 nM

CCC(=O)CC(N)(CCCCB(O)O)C(=O)O (stereo not shown) [Compound 1aw, 2-Amino-6-borono-2-(2-oxobutyl)hexanoic acid hydrochloride]
Ki (human arginase I (hArgI)): 10 to 100 nM
Ki [1]: 10 to 100 nM

N#Cc1ccc(C(=O)NCCOCCC(N)(CCCCB(O)O)C(=O)O)cc1 (stereo not shown) [Compound 38a, 2-Amino-6-borono-2-(2-(2-(4-cyanobenzamid)ethoxy)ethyl)hexanoic acid trifluoroacetate]
Ki (human arginase I (hArgI)): 10 to 100 nM
Ki [1]: 10 to 100 nM

NC(CCCCB(O)O)(Cc1ccccc1)C(=O)O (stereo not shown) [Compound 1a, 2-Amino-2-benzyl-6-boronohexanoic acid hydrochloride]
Ki (human arginase I (hArgI)): 100 to 500 nM
Ki [1]: 100 to 500 nM

Cl.NC(CCCO)(CCCCB(O)O)C(=O)O (stereo not shown) [Compound 1ak, 2-Amino-6-borono-2-(3-hydroxypropyl)hexanoic acid hydrochloride]
potency as arginase inhibitor, compared in words (arginase): less potent

NC(CCCCB(O)O)(CC(=O)c1ccccc1)C(=O)O (stereo not shown) [Compound 1ax, 2-Amino-6-borono-2-(2-oxo-2-phenylethyl)hexanoic acid hydrochloride]
Ki (human arginase I (hArgI)): 10 to 100 nM
Ki [1]: 10 to 100 nM

NC(CCCCB(O)O)C(=O)O (racemic) [Rac-ABH, reference compound]
Ki (human arginase I (hArgI)): 0.1 to 10 nM
Ki [1]: 10 to 100 nM

CC(C)CC(N)(CCCCB(O)O)C(=O)O (stereo not shown) [Compound 1ap, 2-Amino-6-borono-2-isobutylhexanoic acid hydrochloride]
Ki (human arginase I (hArgI)): 10 to 100 nM
Ki [1]: 10 to 100 nM

NCCCCC(N)(CCCCB(O)O)C(=O)O (stereo not shown) [Compound 1bb, 2,6-Diamino-2-(4-boronobutyl)hexanoic acid]
Ki (human arginase I (hArgI)): 0.1 to 10 nM
Ki [1]: 0.1 to 10 nM

NC(CCCCB(O)O)(CCCCc1ccccc1)C(=O)O (stereo not shown) [Compound 1e, 2-Amino-6-borono-2-(4-phenylbutyl)hexanoic acid]
Ki (human arginase I (hArgI)): 10 to 100 nM
Ki [1]: 10 to 100 nM

CC[C@H](C)C(=O)O[C@H]1C[C@@H](C)C=C2C=C[C@H](C)[C@H](CC[C@@H]3C[C@@H](O)CC(=O)O3)[C@H]21 [lovastatin, reference compound]
half-life of lactone hydrolysis ([2]; gastric pH and temperature): about 1 hour

N[C@@](CO)(CCCCB(O)O)C(=O)O (single isomer, unassigned) [Compound 1ar]
Ki (human arginase I (hArgI)): 0.1 to 10 nM
potency as arginase inhibitor, compared in words (arginase): most potency as an arginase inhibitor by two orders of magnitude compared to compound 1as; also recorded: as potent as ABH; also recorded: almost two orders of magnitude) more potent than the other enantiomer
Ki [1]: 0.1 to 10 nM

N=C(NO)NCC[C@H](N)C(=O)O [Nor-NOHA, N^ω-hydroxy-nor-1-arginine, reference compound]
Ki [1]: 100 to 500 nM

N[C@@H](CCCCB(O)O)C(=O)O [ABH, 2(S)-amino-6-borono-hexanoic acid]
engorgement response in the genitalia [3]: enhances the engorgement response in the genitalia of live female rabbits
airway hyperresponsiveness [4]: prevents airway hyperresponsiveness
erectile response (erectile response): enhances the erectile response in live male rabbits
relaxation of internal anal sphincter muscle [5]: relax this muscle
NO-dependent relaxation of corpus cavernosum [6]: enhances the NO-dependent relaxation of this tissue
NO biosynthesis [7]: restores NO biosynthesis
Ki (human arginase I (hArgI)): 0.1 to 10 nM
disease score [8]: improves the disease score of animals
Ki [1]: 0.1 to 10 nM

NC(CCCCB(O)O)(CCOc1cccc(Cl)c1)C(=O)O (stereo not shown) [Compound 1ad, 2-Amino-6-borono-2-(2-(3-chlorophenoxy)ethyl)hexanoic acid]
Ki (human arginase I (hArgI)): 10 to 100 nM
potency as arginase inhibitor, compared in words (arginase): potency loss
Ki [1]: 10 to 100 nM

N[C@](CO)(CCCCB(O)O)C(=O)O (single isomer, unassigned) [Compound 1as]
Ki (human arginase I (hArgI)): 100 to 500 nM
Ki [1]: 100 to 500 nM

O=C1CCc2ccccc2O1 [dihydrocoumarin]
half-life ([2]; 37° C. in the stomach): about 1 hour

Cl.NC(CCCCB(O)O)(CCCOc1ccccc1)C(=O)O (stereo not shown) [Compound 1d, 2-Amino-6-(borono-2-(3-phenoxypropyl)hexanoic acid hydrochloride]
Ki (human arginase I (hArgI)): 0.1 to 10 nM
Ki [1]: 0.1 to 10 nM

CC(N)(CCNC(N)=NO)C(=O)O (stereo not shown) [Compound 54a, 2-Amino-4-(2-hydroxyguanidino)-2-methylbutanoic acid dihydrochloride]
Ki (human arginase I (hArgI)): 100 to 500 nM
Ki [1]: 100 to 500 nM

COc1cccc(NC(=O)N2CCN(CCCC(N)(CCCCB(O)O)C(=O)O)CC2)c1 (stereo not shown) [Compound 39c, 2-Amino-6-borono-2-(3-(4-(3-methoxyphenylcarbamoyl)piperazin-1-yl)propyl)hexanoic acid]
Ki (human arginase I (hArgI)): 10 to 100 nM
Ki [1]: 10 to 100 nM

COc1cccc(NC(=O)NCCOCCC(N)(CCCCB(O)O)C(=O)O)c1 (stereo not shown) [Compound 39a, 2-Amino-6-borono-2-(2-(2-(3-(3-methoxyphenyl)ureido)ethoxy)ethyl)hexanoic acid]
Ki (human arginase I (hArgI)): 10 to 100 nM
Ki [1]: 10 to 100 nM

CC(=O)NCCOCCC(N)(CCCCB(O)O)C(=O)O (stereo not shown) [Compound 38b, 2-(2-(2-Acetamidoethoxy)ethyl)-2-amino-6-boronohexanoic acid]
Ki (human arginase I (hArgI)): 100 to 500 nM
Ki [1]: 100 to 500 nM

NC(CCCCB(O)O)(CCCOc1ccc(F)cc1)C(=O)O (stereo not shown) [Compound 1h, 2-Amino-6-borono-2-(3-(4-fluorophenoxy)propyl)hexanoic acid]
Ki (human arginase I (hArgI)): 0.1 to 10 nM
Ki [1]: 10 to 100 nM

S-(2-boronoethyl)-1-cysteine [BEC]
vasodilation and circulation (microvasculature): vasodilatory and enhances circulation

Cl.NC(CCCCB(O)O)(CCCOc1ccccc1)C(=O)O (stereo not shown) [Compound 1d]
potency as arginase inhibitor, compared in words (arginase): as potent as Rac-ABH
